This data set is described as follows: activity coefficient (dimensionless); of the first substance listed, at infinite dilution; xn = mol fraction of the nth substance listed. To be noted: 101 kPa, Liquid, Chromatography, x1 = 0.

Each structure is given as a SMILES string. ± gives the expanded uncertainty stated by the source.

Take `ClCCCl` [1,2-dichloroethane] + CCCCCCCCCC(=O)O: the activity coefficient (314.1 K) was 1.45 ± 0.12; the activity coefficient (314.24 K) worked out at 1.5 ± 0.13; the activity coefficient (333.26 K) was found to be 1.35 ± 0.11; the activity coefficient (333.38 K) is 1.4 ± 0.12; the activity coefficient (353.3 K) amounted to 1.27 ± 0.11.
Regarding `ClCCCl` [1,2-dichloroethane] + CCCCCCCCCCCC(=O)O, the activity coefficient is 1.38 ± 0.12 (314.1 K); 1.37 ± 0.12 (314.24 K); 1.3 ± 0.11 (333.26 K); 1.32 ± 0.11 (333.38 K); 1.23 ± 0.1 (353.25 K).
As to `ClCCCl` [1,2-dichloroethane] + CCCCCCCCCCCCCC(=O)O, the activity coefficient was determined as 1.21 ± 0.1 (314.1 K); 1.24 ± 0.1 (314.24 K); 1.2 ± 0.099 (333.26 K); 1.18 ± 0.098 (333.38 K); 1.13 ± 0.094 (353.25 K); 1.13 ± 0.093 (353.3 K).
As to `ClCCCl` [1,2-dichloroethane] + CCCCCCCCCCCCCCCC(=O)O, the activity coefficient runs as follows: (340.19 K) 1.22 ± 0.1; (348.01 K) 1.19 ± 0.099; (358.22 K) 1.14 ± 0.095.
On to `CC(C)CC(C)(C)C` [2,2,4-trimethylpentane] + CCCCCCCCCC(=O)O, for which the activity coefficient was determined as 2.02 ± 0.17 (314.1 K), 1.98 ± 0.17 (314.24 K), 1.91 ± 0.16 (333.26 K) and 1.86 ± 0.16 (353.25 K).
In the case of `CC(C)CC(C)(C)C` [2,2,4-trimethylpentane] + CCCCCCCCCCCC(=O)O, the activity coefficient came to 1.75 ± 0.15 (314.1 K); 1.77 ± 0.15 (314.24 K); 1.7 ± 0.14 (333.26 K); 1.72 ± 0.15 (333.38 K); 1.67 ± 0.14 (353.25 K); 1.69 ± 0.14 (353.3 K).
Turning to `CC(C)CC(C)(C)C` [2,2,4-trimethylpentane] + CCCCCCCCCCCCCC(=O)O, the activity coefficient turned out to be 1.53 ± 0.13 (338.27 K), 1.5 ± 0.13 (348.3 K) and 1.45 ± 0.12 (358.33 K).
Regarding `CC(C)CC(C)(C)C` [2,2,4-trimethylpentane] + CCCCCCCCCCCCCCCC(=O)O, the activity coefficient (340.19 K) worked out at 1.5 ± 0.13, the activity coefficient (348.01 K) was 1.46 ± 0.12 and the activity coefficient (358.32 K) was determined as 1.42 ± 0.12.
Take `ClCc1ccccc1` [(chloromethyl)benzene] + CCCCCCCCCCCC(=O)O: the activity coefficient (358.06 K) was 1.71 ± 0.15 and the activity coefficient (358.1 K) was found to be 1.71 ± 0.15.
Turning to `ClCc1ccccc1` [(chloromethyl)benzene] + CCCCCCCCCCCCCC(=O)O, the activity coefficient was determined as 1.61 ± 0.14 (333.26 K), 1.6 ± 0.14 (333.38 K), 1.57 ± 0.13 (353.25 K) and 1.55 ± 0.13 (353.3 K).
Regarding `ClCc1ccccc1` [(chloromethyl)benzene] + CCCCCCCCCCCCCCCC(=O)O, the activity coefficient runs as follows: (348.01 K) 1.62 ± 0.14; (358.22 K) 1.57 ± 0.13.
For the molecule `CC(C)=O` [acetone] + CCCCCCCCCC(=O)O, the activity coefficient by setting is: (314.1 K) 1.56 ± 0.13; (333.26 K) 1.46 ± 0.12; (333.38 K) 1.47 ± 0.12; (353.25 K) 1.34 ± 0.11.
`CC(C)=O` [acetone] + CCCCCCCCCCCC(=O)O: the activity coefficient runs as follows: (314.1 K) 1.59 ± 0.14; (314.24 K) 1.59 ± 0.14; (333.26 K) 1.45 ± 0.12; (333.38 K) 1.47 ± 0.12; (353.25 K) 1.33 ± 0.11; (353.3 K) 1.36 ± 0.12.
On to `CC(C)=O` [acetone] + CCCCCCCCCCCCCC(=O)O, for which the activity coefficient was 1.43 ± 0.12 (314.1 K); 1.46 ± 0.12 (314.24 K); 1.36 ± 0.11 (333.26 K); 1.35 ± 0.11 (333.38 K); 1.3 ± 0.11 (353.25 K); 1.27 ± 0.11 (353.3 K).
